Values joined by “and” are separate entries in the source; they are usually repeats but may differ in a detail not shown here. Identical values can stand only once. Inconclusive results and toxic doses are left out. No stated cut-off is given here; in the data, active means T/C of 150% or more; inactive means T/C below 125%.
System: L1210 leukemia ip in BDF1 mice, survival T/C
Test: NCI In Vivo Anticancer Drug Screen. Data for tumor model L1210 Leukemia (intraperitoneal) in B6D2F1 (BDF1) mice
Settings: endpoint: mean survival time, higher = longer survival
In short: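 In this screen, tumor-bearing mice given compound are compared to those given vehicle, and their survival values are reported as a treated-to-control quotient.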

[1] = dose: 100.0 mg/kg/injection, schedule: Q01DX001 (ip), vehicle: saline
[2] = dose: 100.0 mg/kg/injection, schedule: Q04DX003 (ip), vehicle: saline
[3] = dose: 200.0 mg/kg/injection, schedule: Q01DX001 (ip), vehicle: saline
[4] = dose: 200.0 mg/kg/injection, schedule: Q01DX009 (ip), vehicle: other
[5] = dose: 200.0 mg/kg/injection, schedule: Q01DX009 (ip), vehicle: saline
[6] = dose: 200.0 mg/kg/injection, schedule: Q04DX003 (ip), vehicle: saline
[7] = dose: 400.0 mg/kg/injection, schedule: Q01DX009 (ip), vehicle: other
[8] = dose: 400.0 mg/kg/injection, schedule: Q01DX009 (ip), vehicle: saline
[9] = dose: 400.0 mg/kg/injection, schedule: Q04DX003 (ip), vehicle: saline
[10] = dose: 25.0 mg/kg/injection, schedule: Q01DX009 (ip), vehicle: saline
[11] = dose: 100.0 mg/kg/injection, schedule: Q01DX009 (ip), vehicle: saline
[12] = dose: 100.0 mg/kg/injection, schedule: Q04DX003 (ip), vehicle: saline with Tween-80
[13] = dose: 200.0 mg/kg/injection, schedule: Q04DX003 (ip), vehicle: saline with Tween-80
[14] = dose: 400.0 mg/kg/injection, schedule: Q04DX003 (ip), vehicle: saline with Tween-80
[15] = dose: 6.25 mg/kg/injection, schedule: Q01DX009 (ip), vehicle: saline
[16] = dose: 12.5 mg/kg/injection, schedule: Q01DX009 (ip), vehicle: saline
[17] = dose: 100.0 mg/kg/injection, schedule: Q04DX002 (ip), vehicle: saline
[18] = dose: 200.0 mg/kg/injection, schedule: Q04DX002 (ip), vehicle: saline
[19] = dose: 400.0 mg/kg/injection, schedule: Q04DX002 (ip), vehicle: saline
[20] = dose: 100.0 mg/kg/injection, schedule: Q01DX009 (ip), vehicle: Klucel (hydroxypropylcellulose) (HPC)
[21] = dose: 200.0 mg/kg/injection, schedule: Q01DX009 (ip), vehicle: Klucel (hydroxypropylcellulose) (HPC)
[22] = dose: 400.0 mg/kg/injection, schedule: Q01DX009 (ip), vehicle: Klucel (hydroxypropylcellulose) (HPC)

Measured: T/C

NC(=O)CC(N)C(=O)O (stereo not drawn)
inactive: [1] 96 % of control | [2] 98 % of control | dose: 200.0 mg/kg/injection, schedule: Q01DX001 (ip), vehicle: other 107 % of control | [3] 97 % of control and 104 % of control | [4] 102 % of control | dose: 200.0 mg/kg/injection, schedule: Q01DX009 (ip), vehicle: saline with Tween-80 98 % of control | [5] 97 % of control | dose: 200.0 mg/kg/injection, schedule: Q04DX003 (ip), vehicle: other 102 % of control | [6] 106 % of control and 108 % of control | dose: 400.0 mg/kg/injection, schedule: Q01DX001 (ip), vehicle: other 107 % of control | dose: 400.0 mg/kg/injection, schedule: Q01DX001 (ip), vehicle: saline 98 % of control | [7] 94 % of control | dose: 400.0 mg/kg/injection, schedule: Q01DX009 (ip), vehicle: saline with Tween-80 96 % of control | [8] 103 % of control | dose: 400.0 mg/kg/injection, schedule: Q04DX003 (ip), vehicle: other 96 % of control | [9] 106 % of control and 102 % of control | dose: 800.0 mg/kg/injection, schedule: Q01DX001 (ip), vehicle: other 105 % of control | dose: 800.0 mg/kg/injection, schedule: Q01DX001 (ip), vehicle: saline 106 % of control | dose: 800.0 mg/kg/injection, schedule: Q01DX009 (ip), vehicle: other 100 % of control | dose: 800.0 mg/kg/injection, schedule: Q01DX009 (ip), vehicle: saline with Tween-80 101 % of control | dose: 800.0 mg/kg/injection, schedule: Q01DX009 (ip), vehicle: saline 100 % of control | dose: 800.0 mg/kg/injection, schedule: Q04DX003 (ip), vehicle: other 103 % of control | dose: 800.0 mg/kg/injection, schedule: Q04DX003 (ip), vehicle: saline 101 % of control | dose: 1600.0 mg/kg/injection, schedule: Q01DX001 (ip), vehicle: other 112 % of control | dose: 1600.0 mg/kg/injection, schedule: Q01DX001 (ip), vehicle: saline 101 % of control | dose: 1600.0 mg/kg/injection, schedule: Q01DX009 (ip), vehicle: other 103 % of control | dose: 1600.0 mg/kg/injection, schedule: Q01DX009 (ip), vehicle: saline with Tween-80 98 % of control | dose: 1600.0 mg/kg/injection, schedule: Q01DX009 (ip), vehicle: saline 99 % of control | dose: 1600.0 mg/kg/injection, schedule: Q04DX003 (ip), vehicle: other 96 % of control | dose: 1600.0 mg/kg/injection, schedule: Q04DX003 (ip), vehicle: saline 100 % of control

CN(C)CCC1CCCCN1 (stereo not drawn)
inactive: [10] 95 % of control | dose: 25.0 mg/kg/injection, schedule: Q04DX003 (ip), vehicle: saline 103 % of control | dose: 50.0 mg/kg/injection, schedule: Q01DX009 (ip), vehicle: saline 95 % of control | dose: 50.0 mg/kg/injection, schedule: Q04DX003 (ip), vehicle: saline 101 % of control | [11] 104 % of control | [2] 99 % of control and 100 % of control

COc1ccc(Nc2ccc([N+](=O)[O-])cc2[N+](=O)[O-])cc1
inactive: [12] 96 % of control | [13] 94 % of control | [14] 91 % of control

CC#CC(=O)O
inactive: [15] 106 % of control | [16] 106 % of control | dose: 25.0 mg/kg/injection, schedule: Q01DX005 (ip), vehicle: saline 104 % of control | [10] 98 % of control and 100 % of control | dose: 25.0 mg/kg/injection, schedule: Q04DX002 (ip), vehicle: saline 95 % of control | dose: 50.0 mg/kg/injection, schedule: Q01DX005 (ip), vehicle: saline 97 % of control | dose: 50.0 mg/kg/injection, schedule: Q04DX002 (ip), vehicle: saline 102 % of control | dose: 100.0 mg/kg/injection, schedule: Q01DX005 (ip), vehicle: saline 93 % of control | [17] 104 % of control

O=C(C(F)(F)F)C(F)(F)F
inactive: [15] 95 % of control | [16] 98 % of control | [10] 114 % of control | [11] 88 % of control

CC(C)(C)c1cc(Cc2cc(C(C)(C)C)c(O)c(C(C)(C)C)c2)cc(C(C)(C)C)c1O
inactive: [12] 96 % of control | [13] 98 % of control | [14] 104 % of control

C/C(=N/N(C)C)c1ccccc1
inactive: [17] 97 % of control | dose: 100.0 mg/kg/injection, schedule: Q04DX003 (ip), vehicle: Klucel (hydroxypropylcellulose) (HPC) 112 % of control | [18] 108 % of control | dose: 200.0 mg/kg/injection, schedule: Q04DX003 (ip), vehicle: Klucel (hydroxypropylcellulose) (HPC) 95 % of control | [19] 108 % of control | dose: 400.0 mg/kg/injection, schedule: Q04DX003 (ip), vehicle: Klucel (hydroxypropylcellulose) (HPC) 90 % of control

CCON=C1C(C)(C)C(C)(C)C(C)(C)C1(C)C
inactive: [20] 98 % of control | [21] 95 % of control | [22] 96 % of control

C=CCSC(=S)SCc1cccc(Cl)c1
inactive: [11] 101 % of control | [17] 100 % of control | [5] 101 % of control | [18] 100 % of control | [8] 99 % of control | [19] 97 % of control

N#CCCN(CCc1ccccn1)C(=S)Nc1cccc(C(F)(F)F)c1
inactive: dose: 100.0 mg/kg/injection, schedule: Q01DX009 (ip), vehicle: other 110 % of control | [4] 98 % of control | [7] 110 % of control

CS(=O)(=O)OCCC(=O)NCNC(=O)CCOS(C)(=O)=O
inactive: dose: 10.6 mg/kg/injection, schedule: Q01DX Z (ip), vehicle: carboxymethylcellulose (CMC) 117 % of control and 120 % of control | dose: 16.0 mg/kg/injection, schedule: Q01DX Z (ip), vehicle: carboxymethylcellulose (CMC) 109 % of control | dose: 18.8 mg/kg/injection, schedule: Q01DX Z (ip), vehicle: carboxymethylcellulose (CMC) 124 % of control | dose: 24.0 mg/kg/injection, schedule: Q01DX Z (ip), vehicle: carboxymethylcellulose (CMC) 123 % of control | dose: 28.0 mg/kg/injection, schedule: Q01DX Z (ip), vehicle: carboxymethylcellulose (CMC) 124 % of control | dose: 54.0 mg/kg/injection, schedule: Q01DX Z (ip), vehicle: carboxymethylcellulose (CMC) 122 % of control | dose: 81.0 mg/kg/injection, schedule: Q01DX Z (ip), vehicle: carboxymethylcellulose (CMC) 117 % of control | dose: 84.0 mg/kg/injection, schedule: Q01DX Z (ip), vehicle: carboxymethylcellulose (CMC) 109 % of control | dose: 90.0 mg/kg/injection, schedule: Q01DX Z (ip), vehicle: carboxymethylcellulose (CMC) 121 % of control | dose: 95.0 mg/kg/injection, schedule: Q01DX Z (ip), vehicle: carboxymethylcellulose (CMC) 119 % of control

COC(=O)/C(=C\c1cccnc1)NC(=O)c1ccccc1
inactive: dose: 50.0 mg/kg/injection, schedule: Q01DX001 (ip), vehicle: saline 100 % of control | [1] 100 % of control | [2] 97 % of control | [3] 103 % of control | [6] 95 % of control | [9] 97 % of control

O=P(OCc1ccccc1)(N(CCCl)CCCl)N1CCN(Cc2ccccc2)CC1 (stereo not drawn)
inactive: dose: 10.0 mg/kg/injection, schedule: Q01DX Z (ip), vehicle: saline 93 % of control | dose: 30.0 mg/kg/injection, schedule: Q01DX Z (ip), vehicle: saline 90 % of control | dose: 100.0 mg/kg/injection, schedule: Q01DX Z (ip), vehicle: saline 95 % of control

BrC1C2C3C=CC4C(C=C3)C4C12 (stereo not drawn)
inactive: dose: 50.0 mg/kg/injection, schedule: Q01DX001 (ip), vehicle: Klucel (hydroxypropylcellulose) (HPC) 100 % of control and 101 % of control | dose: 100.0 mg/kg/injection, schedule: Q01DX001 (ip), vehicle: Klucel (hydroxypropylcellulose) (HPC) 98 % of control and 111 % of control | dose: 200.0 mg/kg/injection, schedule: Q01DX001 (ip), vehicle: Klucel (hydroxypropylcellulose) (HPC) 108 % of control and 93 % of control

COc1ccc(Cl)cc1NC(=O)Oc1ccc(C=O)cc1OC
inactive: [20] 102 % of control and 114 % of control | [21] 98 % of control and 104 % of control | [22] 104 % of control and 109 % of control

From PubChem BioAssay AID248 (DTP/NCI, 2004)
